How the values were obtained:
THP-1 cells [1] = assay: Chemotaxis inhibition assay (chemoTX chamber, CCL2); assay type: cell-based, human; conditions: towards CCL2, 90 min
Procedure: Chemotaxis was measured in a 96-well chemoTX chemotaxis chamber with a polycarbonate filter (5-μm pore size) (Neuro probe). Human CCL2 (R&D Systems) was added to the lower chamber of the plate and the cells were added to the upper chamber. After incubation at 37 °C and 5% CO2 for 90 min, the filter was removed and the number of migrated cells in the lower chamber was counted using a cell counting kit F (Dojindo). Data are expressed as migration efficiency (percentage of the maximal migration).

[2] = system: LLC tumor cells co-cultured with monocytes; assay: Tumor cell co-culture with monocytes/macrophages; assay type: cell-based, mice; conditions: nano-molar concentrations of DSF
Procedure: Monocytes were enriched from bone marrow cells by MACS negative selection for CD3, B220, Ly-6G, NK1.1, Ter119, CD49b, and c-kit. The percentage of Ly-6C^hi Ly-6G^− monocytes were >80%. Monocytes (1 × 10^5) and 100 DsRed^+ LLC tumor cells were co-cultured for 24 h. Proliferating tumor cell clusters containing more than 10 cells were enumerated by fluorescent microscopy. For flow cytometry analysis, cultured cells were harvested with trypsin-EDTA after 3 days of culture. Cells were stained with CD45-FITC (clone 102, BioLegend), then stained with annexin V-APC in binding buffer (BD biosciences). For detection of DNA synthesis, 5-ethynyl-2´-deoxyuridine (EdU) was added to the culture in the final hour of incubation. Intracellular EdU was stained using Click-iT® EdU Alexa Fluor™ 647 flow cytometry assay kits (Thermo Fisher Scientific) according to manufacturer’s instructions. Flow cytometry data were obtained by gating CD45(−) DsRed(+) cells and analyzing annexin V-positive cells or EdU-positive cells. Dead cells were excluded by Zombie Aqua staining (BioLegend). Stained cells were measured using Flow-Count™ Fluorospheres (Beckman Coulter) for the determination of absolute counts.

peritoneal macrophages = assay: CCL2-induced pseudopodia protrusion of macrophages; assay type: cell-based, mice; conditions: 25 µM, 1 h pre-incubation
Procedure: Peritoneal macrophages were isolated from mice, seeded in the 8-well glass-based dishes (Life Technologies) and incubated overnight at 37 °C to allow the cells to adhere. After serum starvation for 6 h, cells were stimulated with chemokine at a concentration of 100 ng mL^–1, then fixed with 4% paraformaldehyde (Wako) and permeabilized with 0.1% Triton X-100 (Wako) in PBS, followed by staining with phalloidin conjugated with Alexa Fluor 594 (Life Technologies). […] Tumor macrophages were isolated from collagenase digestion of tumor tissue as attached cells by washing non-adherent cells away and further culturing them in DMEM containing 10 nM M-CSF (BD Biosciences) and 10% serum. After co-culture with LLC tumor cells, confocal images were obtained using an SP5 confocal microscope (Leica Microsystems). Cells were classified as lamellipodial/round-shaped or filopodial based on their morphology and the ratio of each type in the visual field determined.

[3] = system: PI3K activation in CCR2-expressing Chinese hamster ovary cells; assay: PH-Akt domain translocation assay; assay type: cell-based; conditions: 25 µM DSF for 30 min
Source text: CCR2-expressing Chinese hamster ovary cells were transfected with PH-Akt-tHcRed. […] Cells were visualized with confocal microscopy using SP5 (Leica).

THP-1 cells [4] = assay: Chemotaxis assay using TAXIScan; assay type: cell-based, human; conditions: DSF 50 µM, towards CCL2
Procedure: The TAXIScan device (ECI, Tokyo, Japan) is an optically accessible horizontal chemotaxis apparatus consisting of an etched silicon substrate and a flat glass plate, which form two compartments separated by a 5-μm deep microchannel. THP-1 cells were applied through a hole connected to one of the compartments and aligned along the start line on the edge of the channel. Human CCL2 (10 ng mL^–1) was applied through a hole connected to the other compartment to form a concentration gradient in the channel. Time-lapse images were recorded every 30 s for 30 min and cell movement was analyzed using TAXIScan analyzer software (ECI, Tokyo, Japan).

[5] = system: Lewis lung carcinoma (LLC); assay: LLC lung metastasis model; assay type: in vivo, C57BL/6 mice; conditions: LLC i.v.; DSF 40 mg kg-1 i.p. daily
Procedure: For evaluating subcutaneous tumor growth, LLC or B16 cells (5 × 10^5) in 50 μl PBS were inoculated subcutaneously into the right flanks of mice. Mice were euthanized when their tumor volumes reached 4000 mm^3. Tumor sizes were measured twice a week using calipers. Tumor volume was calculated using the following formula: Volume = (width)^2 × length/2. For the lung metastasis model, 1 × 10^6 LLC or B16 cells in 200 μl PBS were injected intravenously into mice. Mice were euthanized at day 10 after tumor injection for the LLC model and day 5–9 for the B16 model, and the lungs were isolated after perfusion with PBS via the left ventricle. Visible lung metastases were counted in the left lobe. The diameters of metastatic nodules in the lung lobe image were measured using ImageJ software. […] Anti-PD-1 antibody (clone J43, BioXcell) was injected intraperitoneally at a dose of 200 μg per mouse on day 5, 8, 14, and 18 after tumor inoculation.

Question: Which cellular chemotaxis (THP-1 cells [1]) does the source give for CCN(CC)C(=S)SSC(=S)N(CC)CC [DSF, disulfiram] here?
Answer: inhibited

Question: And the “tumor cell growth induced by co-culture with monocytes” value [2]?
Answer: inhibited

Question: What about the CCL2-induced pseudopodia protrusion (peritoneal macrophages) of the same compound?
Answer: inhibited

Question: And the “membrane localization of PH-Akt upon CCL2 stimulation” value [3]?
Answer: significantly impaired

Question: And the chemotaxis directionality (THP-1 cells [4])?
Answer: impaired

Question: And the chemotaxis velocity (THP-1 cells [4])?
Answer: impaired

Question: What about the “lung metastatic nodule formation” value [5] of the same compound?
Answer: significantly reduced

Reference: paper PMC6992764 (Nature Communications, 2020)
